Source: ChEMBL document CHEMBL4725293, “Synthesis of novel lignan-like compounds and their antimicrobial activity” (Bioorg Med Chem Lett, 2020)
Values after ≈ are worked out from the molar mass of the structure shown. Active and inactive are the calls of the source. No cut-off for these calls is given here.

Assays:
Candida albicans = experiment: […] activity against Candida albicans ATCC 90028 by broth microdilution method; format: functional
Pseudomonas aeruginosa = experiment: Antibacterial activity against Pseudomonas aeruginosa ATCC 27853 by broth microdilution method; format: functional
Staphylococcus aureus [1] = experiment: Bactericidal activity against Staphylococcus aureus ATCC 29213 at 32 ug/ml measured at 1 hr by time kill assay (reference value: 5.65 to 9.57); format: functional; conditions: dose 32 µg/ml
[2] = Cytotoxicity against human HaCaT cells assessed as reduction in cell viability at 16 ug/ml incubated for 24 hrs by MTT assay; format: cell-based; conditions: at 16 µg/mL, read-out: INH
Staphylococcus aureus [3] = experiment: Bactericidal activity against Staphylococcus aureus ATCC 29213 at 32 ug/ml measured at 24 hrs by time kill assay (reference value: 5.65 to 9.57); format: functional; conditions: dose 32 µg/ml
[4] = system: Staphylococcus epidermidis; experiment: Induction of preformed biofilm disruption in Staphylococcus epidermidis ATCC 35984 at 64 ug/ml by crystal violet staining based assay relative to control; format: functional; conditions: dose 64.0 µg/ml
Staphylococcus aureus [5] = experiment: Antibacterial activity against Staphylococcus aureus ATCC 29213 by broth microdilution method; format: functional
[6] = system: Staphylococcus epidermidis; experiment: Antibacterial activity against Staphylococcus epidermidis ATCC 35984 by broth microdilution method; format: functional
Staphylococcus aureus [7] = experiment: Bactericidal activity against Staphylococcus aureus ATCC 29213 at 32 ug/ml measured at 3 hrs by time kill assay (reference value: 5.65 to 9.57); format: functional; conditions: dose 32 µg/ml
Staphylococcus aureus [8] = experiment: Bactericidal activity against Staphylococcus aureus ATCC 29213 at 32 ug/ml measured at 0 hrs by time kill assay (reference value: 5.65 to 9.57); format: functional; conditions: dose 32 µg/ml
Staphylococcus aureus [9] = experiment: Bactericidal activity against Staphylococcus aureus ATCC 29213 at 32 ug/ml measured at 6 hrs by time kill assay (reference value: 5.65 to 9.57); format: functional; conditions: dose 32 µg/ml
[10] = system: Staphylococcus epidermidis; experiment: Inhibition of biofilm formation in Staphylococcus epidermidis ATCC 35984 at 64 ug/ml by crystal violet staining based assay relative to control; format: functional
[11] = system: Staphylococcus epidermidis; experiment: Inhibition of biofilm formation in Staphylococcus epidermidis ATCC 35984 at 8 to 32 ug/ml by crystal violet staining based assay relative to control; format: functional, organism-based; conditions: dose microg/ml 8-32
[12] = Cytotoxicity against human HaCaT cells assessed as reduction in cell viability at 32 ug/ml incubated for 24 hrs by MTT assay; format: cell-based; conditions: at 32 µg/mL, read-out: INH
Staphylococcus aureus [13] = experiment: Bactericidal activity against Staphylococcus aureus ATCC 29213 at 16 ug/ml measured at 3 hrs by time kill assay (reference value: 5.65 to 9.57); format: functional; conditions: dose 16 µg/ml
Staphylococcus aureus [14] = experiment: Bactericidal activity against Staphylococcus aureus ATCC 29213 at 16 ug/ml measured at 6 hrs by time kill assay (reference value: 5.65 to 9.57); format: functional; conditions: dose 16 µg/ml
Staphylococcus aureus [15] = experiment: Bactericidal activity against Staphylococcus aureus ATCC 29213 at 16 ug/ml measured at 1 hr by time kill assay (reference value: 5.65 to 9.57); format: functional; conditions: dose 16 µg/ml
Staphylococcus aureus [16] = experiment: Bactericidal activity against Staphylococcus aureus ATCC 29213 at 16 ug/ml measured at 0 hrs by time kill assay (reference value: 5.65 to 9.57); format: functional; conditions: dose 16 µg/ml
Staphylococcus aureus [17] = experiment: Bactericidal activity against Staphylococcus aureus ATCC 29213 at 16 ug/ml measured at 24 hrs by time kill assay (reference value: 5.65 to 9.57); format: functional; conditions: dose 16 µg/ml

Oc1ccc(Cc2cocc2Cc2ccc(O)cc2)cc1
MIC (Candida albicans): 32 µg/mL (≈ 114 µM)
MIC (Pseudomonas aeruginosa): > 128 µg/mL
Activity (Staphylococcus aureus [1]): 5.77 log10CFU/ml
cytotoxicity at 24 h, 16 ug/ml [2]: 25%
Activity (Staphylococcus aureus [3]): 8.86 log10CFU/ml
inhibition [4]: 25%
MIC (Staphylococcus aureus [5]): 32 µg/mL (≈ 114 µM)
MIC [6]: 32 µg/mL (≈ 114 µM)
Activity (Staphylococcus aureus [7]): 6.38 log10CFU/ml
Activity (Staphylococcus aureus [8]): 5.74 log10CFU/ml
Activity (Staphylococcus aureus [9]): 7.77 log10CFU/ml
inhibition at 64 µg/mL [10]: 33%
inhibition [11]: inactive
cytotoxicity at 24 h, 32 ug/ml [12]: 40%

COc1ccc(CC2=C(Cc3ccc(OC)cc3)C(O)OC2=O)cc1 (configuration not stated)
MIC (Pseudomonas aeruginosa): > 128 µg/mL
MIC (Staphylococcus aureus [5]): > 128 µg/mL

COc1ccc(Cc2cocc2Cc2ccccc2O)cc1
MIC (Pseudomonas aeruginosa): > 128 µg/mL
MIC (Staphylococcus aureus [5]): 16 µg/mL (≈ 54.4 µM)
Activity (Staphylococcus aureus [13]): 1.94 log10CFU/ml
Activity (Staphylococcus aureus [14]): 1.61 log10CFU/ml
Activity (Staphylococcus aureus [15]): 2.47 log10CFU/ml
Activity (Staphylococcus aureus [16]): 5.7 log10CFU/ml
Activity (Staphylococcus aureus [17]): 1.56 log10CFU/ml

COc1ccc(CC23OC2OC2OC23Cc2ccc(OC)cc2)cc1 (configuration not stated)
MIC (Pseudomonas aeruginosa): > 128 µg/mL
MIC (Staphylococcus aureus [5]): > 128 µg/mL

NC[C@H]1O[C@H](O[C@H]2[C@H](O)[C@@H](O[C@H]3O[C@H](CO)[C@@H](O)[C@H](N)[C@H]3O)[C@H](N)C[C@@H]2N)[C@H](N)C[C@@H]1O [TOBRAMYCIN]
MIC (Pseudomonas aeruginosa): 4 µg/mL (≈ 8.56 µM)

CC(=O)Oc1ccc(Cc2cocc2Cc2ccc(OC(C)=O)cc2)cc1
MIC (Pseudomonas aeruginosa): > 128 µg/mL
MIC (Staphylococcus aureus [5]): > 128 µg/mL

Oc1ccc(Cc2cocc2Cc2ccccc2O)cc1
MIC (Pseudomonas aeruginosa): > 128 µg/mL
MIC (Staphylococcus aureus [5]): 64 µg/mL (≈ 228 µM)

C[C@@H]1[C@H](O)[C@@H](C)/C=C/C=C/C=C/C=C/C=C/C=C/C=C/[C@H](O[C@@H]2O[C@H](C)[C@@H](O)[C@H](N)[C@@H]2O)C[C@@H]2O[C@](O)(C[C@@H](O)C[C@@H](O)[C@H](O)CC[C@@H](O)C[C@@H](O)CC(=O)O[C@H]1C)C[C@H](O)[C@H]2C(=O)O [AMPHOTERICIN B]
MIC (Candida albicans): 0.25 µg/mL (≈ 0.271 µM)

O=C1OC(O)C(Cc2ccc(O)cc2)=C1Cc1ccc(O)cc1 (configuration not stated)
MIC (Pseudomonas aeruginosa): > 128 µg/mL
MIC (Staphylococcus aureus [5]): > 128 µg/mL

COc1ccc(Cc2cocc2Cc2ccc(OC)cc2)cc1
MIC (Pseudomonas aeruginosa): > 128 µg/mL
MIC (Staphylococcus aureus [5]): > 128 µg/mL

COc1ccc(CC2C(=O)OC3OC32Cc2ccc(OC)cc2)cc1 (configuration not stated)
MIC (Pseudomonas aeruginosa): > 128 µg/mL
MIC (Staphylococcus aureus [5]): > 128 µg/mL

COc1ccc(Cc2cocc2Cc2ccccc2OC)cc1
MIC (Pseudomonas aeruginosa): > 128 µg/mL
MIC (Staphylococcus aureus [5]): > 128 µg/mL

COc1ccc(Cc2cocc2Cc2ccc(O)cc2)cc1
MIC (Candida albicans): 16 µg/mL (≈ 54.4 µM)
MIC (Pseudomonas aeruginosa): > 128 µg/mL
cytotoxicity at 24 h, 16 ug/ml [2]: 50%
inhibition [4]: 25%
MIC (Staphylococcus aureus [5]): 16 µg/mL (≈ 54.4 µM)
Activity (Staphylococcus aureus [13]): 1.6 log10CFU/ml
MIC [6]: 16 µg/mL (≈ 54.4 µM)
Activity (Staphylococcus aureus [14]): 1.35 log10CFU/ml
inhibition at 64 µg/mL [10]: 33%
Activity (Staphylococcus aureus [15]): 2.2 log10CFU/ml
Activity (Staphylococcus aureus [16]): 5.75 log10CFU/ml
Activity (Staphylococcus aureus [17]): 1.24 log10CFU/ml
inhibition [11]: inactive
